Consider 26 molecules from patent publication US20090304692A1, “TRIAZINE COMPOUNDS AS PI3 KINASE AND MTOR INHIBITORS” (Wyeth, priority 2008, published 2009).

Several values for one entry are separate records, joined by “and”; a condition that tells them apart may be missing. Equal values may be shown once. Read-outs that look alike come from different tables or passages of the source.

One experiment concerns the target Human mTOR (FLAG-TOR) (Homo sapiens, UniProt P42345). Put plainly: mTOR kinase assay (DELFIA format, purified enzyme). To be noted: read-out: IC50 mTOR. The format is biochemical.
The target of the next experiment is PI3K-α (Homo sapiens, UniProt P42336). As to the kind of experiment: PI3K-alpha fluorescence polarization assay.
Chain of PI3K-α (P42336 whole entry, species assumed): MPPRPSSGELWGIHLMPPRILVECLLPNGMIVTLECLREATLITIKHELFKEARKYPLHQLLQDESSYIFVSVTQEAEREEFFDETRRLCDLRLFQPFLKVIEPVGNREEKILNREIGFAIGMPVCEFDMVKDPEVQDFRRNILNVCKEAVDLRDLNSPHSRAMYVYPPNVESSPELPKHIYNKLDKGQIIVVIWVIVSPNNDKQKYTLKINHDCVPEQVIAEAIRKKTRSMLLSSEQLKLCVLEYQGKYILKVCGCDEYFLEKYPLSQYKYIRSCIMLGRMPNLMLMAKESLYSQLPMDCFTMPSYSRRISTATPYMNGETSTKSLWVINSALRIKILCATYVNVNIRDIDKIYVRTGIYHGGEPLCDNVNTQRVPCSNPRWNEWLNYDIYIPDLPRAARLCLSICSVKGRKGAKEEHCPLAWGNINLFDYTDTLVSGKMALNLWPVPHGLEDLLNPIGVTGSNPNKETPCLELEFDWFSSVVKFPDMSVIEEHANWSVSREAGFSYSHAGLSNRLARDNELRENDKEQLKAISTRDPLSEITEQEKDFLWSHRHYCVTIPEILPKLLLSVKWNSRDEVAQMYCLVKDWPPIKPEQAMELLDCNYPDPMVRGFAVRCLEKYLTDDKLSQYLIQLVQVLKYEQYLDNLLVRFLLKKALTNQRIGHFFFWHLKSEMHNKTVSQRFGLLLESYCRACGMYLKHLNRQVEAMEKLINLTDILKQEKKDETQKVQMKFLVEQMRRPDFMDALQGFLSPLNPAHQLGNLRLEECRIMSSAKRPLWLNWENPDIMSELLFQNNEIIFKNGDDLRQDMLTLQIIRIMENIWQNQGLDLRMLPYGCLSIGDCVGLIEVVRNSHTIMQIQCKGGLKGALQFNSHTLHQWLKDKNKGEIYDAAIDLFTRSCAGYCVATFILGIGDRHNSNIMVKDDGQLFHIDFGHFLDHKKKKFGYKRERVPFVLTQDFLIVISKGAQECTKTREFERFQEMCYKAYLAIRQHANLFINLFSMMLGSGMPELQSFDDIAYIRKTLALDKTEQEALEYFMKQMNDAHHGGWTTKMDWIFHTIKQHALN
Chain of PI3K-α (P27986 whole entry partner, species assumed): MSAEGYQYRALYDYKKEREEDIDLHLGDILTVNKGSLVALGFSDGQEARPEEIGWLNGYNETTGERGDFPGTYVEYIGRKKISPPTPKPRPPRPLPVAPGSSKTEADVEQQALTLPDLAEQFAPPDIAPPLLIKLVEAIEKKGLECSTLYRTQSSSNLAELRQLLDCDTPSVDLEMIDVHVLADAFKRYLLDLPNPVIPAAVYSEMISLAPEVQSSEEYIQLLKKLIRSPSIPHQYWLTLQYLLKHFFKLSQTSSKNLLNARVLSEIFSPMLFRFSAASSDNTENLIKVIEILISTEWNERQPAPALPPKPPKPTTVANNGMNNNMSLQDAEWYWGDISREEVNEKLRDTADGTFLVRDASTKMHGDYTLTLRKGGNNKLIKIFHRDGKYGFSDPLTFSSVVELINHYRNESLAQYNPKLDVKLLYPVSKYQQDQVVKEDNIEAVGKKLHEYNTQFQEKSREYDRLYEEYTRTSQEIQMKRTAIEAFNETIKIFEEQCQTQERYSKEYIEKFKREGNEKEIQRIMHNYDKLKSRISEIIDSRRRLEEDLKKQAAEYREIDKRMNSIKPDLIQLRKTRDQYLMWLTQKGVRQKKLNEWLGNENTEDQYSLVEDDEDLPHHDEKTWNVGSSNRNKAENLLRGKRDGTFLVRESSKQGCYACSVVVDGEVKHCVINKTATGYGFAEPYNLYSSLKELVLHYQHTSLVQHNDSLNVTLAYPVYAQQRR
The target in another experiment is PI3K-γ (Homo sapiens, UniProt P48736). As to the kind of experiment: PI3K-gamma fluorescence polarization assay. In general terms: In fluorescence polarisation assays a small probe gives low polarisation when free and higher when bound to something large.
Chain of PI3K-γ (P48736 whole entry, species assumed): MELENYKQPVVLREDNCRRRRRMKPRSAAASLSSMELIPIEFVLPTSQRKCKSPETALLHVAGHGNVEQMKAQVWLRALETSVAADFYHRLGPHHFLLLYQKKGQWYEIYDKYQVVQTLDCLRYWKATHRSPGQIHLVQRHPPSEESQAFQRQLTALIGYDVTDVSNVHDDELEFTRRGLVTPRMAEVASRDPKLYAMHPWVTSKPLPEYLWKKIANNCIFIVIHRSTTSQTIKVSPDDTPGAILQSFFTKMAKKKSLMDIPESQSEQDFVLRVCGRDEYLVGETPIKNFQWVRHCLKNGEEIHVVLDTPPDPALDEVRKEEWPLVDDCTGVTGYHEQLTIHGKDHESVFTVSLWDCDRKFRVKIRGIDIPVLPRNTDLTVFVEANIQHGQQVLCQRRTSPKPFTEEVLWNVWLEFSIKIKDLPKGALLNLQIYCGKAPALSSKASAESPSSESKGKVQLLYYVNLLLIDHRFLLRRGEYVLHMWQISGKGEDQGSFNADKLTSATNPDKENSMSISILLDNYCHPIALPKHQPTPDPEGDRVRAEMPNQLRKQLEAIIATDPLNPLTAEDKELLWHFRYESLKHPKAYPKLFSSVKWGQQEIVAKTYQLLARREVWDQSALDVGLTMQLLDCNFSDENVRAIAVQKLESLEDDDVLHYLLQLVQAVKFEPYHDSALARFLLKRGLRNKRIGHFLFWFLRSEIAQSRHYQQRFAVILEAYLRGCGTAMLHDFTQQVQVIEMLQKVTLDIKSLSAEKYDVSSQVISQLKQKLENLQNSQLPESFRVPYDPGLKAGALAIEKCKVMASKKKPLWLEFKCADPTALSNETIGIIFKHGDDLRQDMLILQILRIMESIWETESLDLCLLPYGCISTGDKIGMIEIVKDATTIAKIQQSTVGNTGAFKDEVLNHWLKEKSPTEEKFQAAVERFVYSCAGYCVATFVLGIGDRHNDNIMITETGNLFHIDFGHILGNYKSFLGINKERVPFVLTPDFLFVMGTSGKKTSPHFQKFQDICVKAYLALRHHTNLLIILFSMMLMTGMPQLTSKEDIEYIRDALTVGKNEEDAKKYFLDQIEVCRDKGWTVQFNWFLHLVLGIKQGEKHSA

Chain of Human mTOR (FLAG-TOR) (P42345 1360-2549 limits assumed): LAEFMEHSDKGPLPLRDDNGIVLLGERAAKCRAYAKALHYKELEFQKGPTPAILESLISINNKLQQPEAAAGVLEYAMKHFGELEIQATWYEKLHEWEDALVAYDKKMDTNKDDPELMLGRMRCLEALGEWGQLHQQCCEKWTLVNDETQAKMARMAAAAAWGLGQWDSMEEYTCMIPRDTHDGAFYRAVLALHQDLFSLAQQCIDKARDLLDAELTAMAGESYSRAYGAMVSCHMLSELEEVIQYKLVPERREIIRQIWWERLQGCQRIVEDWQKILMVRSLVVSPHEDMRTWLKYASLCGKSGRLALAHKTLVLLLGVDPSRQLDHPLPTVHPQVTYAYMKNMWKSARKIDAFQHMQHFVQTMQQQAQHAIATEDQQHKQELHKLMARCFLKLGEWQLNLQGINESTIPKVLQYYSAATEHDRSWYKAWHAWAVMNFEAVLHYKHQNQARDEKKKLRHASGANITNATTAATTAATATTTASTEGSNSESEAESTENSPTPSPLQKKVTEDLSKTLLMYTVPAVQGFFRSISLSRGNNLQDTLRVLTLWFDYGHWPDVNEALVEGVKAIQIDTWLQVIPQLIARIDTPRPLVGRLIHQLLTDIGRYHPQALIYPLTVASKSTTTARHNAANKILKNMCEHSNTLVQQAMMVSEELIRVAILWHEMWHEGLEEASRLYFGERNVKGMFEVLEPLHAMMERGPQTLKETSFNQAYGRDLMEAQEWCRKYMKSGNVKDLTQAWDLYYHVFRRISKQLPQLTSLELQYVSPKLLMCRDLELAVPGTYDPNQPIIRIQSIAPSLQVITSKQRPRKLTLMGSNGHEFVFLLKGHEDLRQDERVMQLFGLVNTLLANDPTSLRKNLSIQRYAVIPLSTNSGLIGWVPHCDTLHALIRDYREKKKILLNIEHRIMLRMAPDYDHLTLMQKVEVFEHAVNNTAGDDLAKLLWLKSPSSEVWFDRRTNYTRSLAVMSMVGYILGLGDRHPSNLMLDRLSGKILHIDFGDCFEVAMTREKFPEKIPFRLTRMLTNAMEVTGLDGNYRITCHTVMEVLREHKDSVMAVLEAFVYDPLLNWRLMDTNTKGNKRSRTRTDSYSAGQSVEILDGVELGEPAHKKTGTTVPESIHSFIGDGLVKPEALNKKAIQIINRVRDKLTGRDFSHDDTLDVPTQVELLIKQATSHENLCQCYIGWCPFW

Take “1-(3-{[4-(dimethylamino)piperidin-1-yl]carbonyl}phenyl)-3-{4-[4-(4-methylphenyl)-6-morpholin-4-yl-1,3,5-triazin-2-yl]phenyl}urea [Example 579]”: the 50% inhibitory concentration (IC50) – broadly, the concentration that inhibits the measured activity by half – was 120 nM at Human mTOR (FLAG-TOR), 462 nM on PI3K-α (read-out: IC50 PI3Kα) and 658 nM on PI3K-γ (read-out: IC50 PI3Kγ).

For “1-(4-(4-(3-oxa-8-azabicyclo[3.2.1]octan-8-yl)-6-(piperidin-4-ylamino)-1,3,5-triazin-2-yl)phenyl)-3-ethylurea [Example 363]”, the IC50 is 0.77 nM on Human mTOR (FLAG-TOR), 1100 nM on PI3K-α (read-out: IC50 PI3Kα) and 7140 nM at PI3K-γ (read-out: IC50 PI3Kγ).

Take `COc1ccc(NC(=O)Nc2ccc(-c3nc(N4CCOCC4)nc(N4CCOCC4)n3)cc2)c(OC)c1` [Example 7, 1-(2,4-dimethoxyphenyl)-3-[4-(4,6-dimorpholin-4-yl-1,3,5-triazin-2-yl)phenyl]-urea]: the IC50 on Human mTOR (FLAG-TOR) is over 4000 nM; at PI3K-α it was over 10000 nM.

Turning to `CCNC(=O)Nc1ccc(-c2nc(N3CCOCC3)nc(N3CCOCC3)n2)cc1` [Example 12, 1-[4-(4,6-dimorpholin-4-yl-1,3,5-triazin-2-yl)phenyl]-3-ethylurea], the figures for the IC50 on Human mTOR (FLAG-TOR), at PI3K-α (read-out: IC50 PI3Kα) and on PI3K-γ (read-out: IC50 PI3Kγ) were 11 nM, 248 nM and 815 nM, respectively.

Consider `Cc1ccc(NC(=O)Nc2ccc(-c3nc(NC4CN(C(=O)OC(C)(C)C)C4)nc(N4CCOCC4)n3)cc2)cc1` [Example 16, tert-butyl 3-{[4-(4-{[(4-methylphenyl)carbamoyl]amino}phenyl)-6-morpholin-4-yl-1,3,5-triazin-2-yl]amino}azetidine-1-carboxylate], for which the concentration for half-maximal inhibition (IC50) on Human mTOR (FLAG-TOR) was 12 nM; at PI3K-α it was over 10000 nM.

Consider `Nc1ccc(-c2nc(N3CCOCC3)nc(N3C4CCC3COC4)n2)cc1` [Example 33, 4-[4-morpholin-4-yl-6-(3-oxa-8-azabicyclo[3.2.1]oct-8-yl)-1,3,5-triazin-2-yl]aniline], for which the IC50 is 91 nM on Human mTOR (FLAG-TOR), 2550 nM on PI3K-α (read-out: IC50 PI3Kα) and over 10000 nM against PI3K-γ.

Turning to `CC(C)NC(=O)Nc1ccc(-c2nc(N3CCOCC3)nc(N3C4CCC3COC4)n2)cc1` [Example 44, 1-isopropyl-3-{4-[4-morpholin-4-yl-6-(3-oxa-8-azabicyclo[3.2.1]oct-8-yl)-1,3,5-triazin-2-yl]phenyl}urea], the IC50 was found to be 13.5 nM on Human mTOR (FLAG-TOR), 1580 nM at PI3K-α (read-out: IC50 PI3Kα) and 9500 nM on PI3K-γ (read-out: IC50 PI3Kγ).

Turning to `O=C(NCCO)Nc1ccc(-c2nc(N3CCOCC3)nc(N3C4CCC3COC4)n2)cc1` [Example 45, 1-(2-hydroxyethyl)-3-{4-[4-morpholin-4-yl-6-(3-oxa-8-azabicyclo[3.2.1]oct-8-yl)-1,3,5-triazin-2-yl]phenyl}urea], the IC50 is 3.6 nM at Human mTOR (FLAG-TOR), 504 nM on PI3K-α (read-out: IC50 PI3Kα) and 2080 nM at PI3K-γ (read-out: IC50 PI3Kγ).

For `CN(C)CCNC(=O)Nc1ccc(-c2nc(N3CCOCC3)nc(N3CCC4(CC3)OCCO4)n2)cc1` [Example 46, 1-[2-(dimethylamino)ethyl]-3-{4-[4-(1,4-dioxa-8-azaspiro[4.5]dec-8-yl)-6-morpholin-4-yl-1,3,5-triazin-2-yl]phenyl}urea], the IC50 is 24 nM and 20 nM on Human mTOR (FLAG-TOR); 208 nM on PI3K-α (read-out: IC50 PI3Kα, listed as 136); 208 nM on PI3K-α (read-out: IC50 PI3Kα, listed as 711); 4920 nM on PI3K-γ (read-out: IC50 PI3Kγ, listed as 136); 4920 nM at PI3K-γ (read-out: IC50 PI3Kγ, listed as 711).

For `O=C(Nc1ccc(-c2nc(N3CCOCC3)nc(N3CCOCC3)n2)cc1)Nc1ccc(C(F)(F)F)cn1` [Example 55, 1-[4-(4,6-dimorpholin-4-yl-1,3,5-triazin-2-yl)phenyl]-3-[5-(trifluoromethyl)pyridin-2-yl]urea], the IC50 was found to be 50 nM on Human mTOR (FLAG-TOR), 205 nM at PI3K-α (read-out: IC50 PI3Kα) and 1580 nM on PI3K-γ (read-out: IC50 PI3Kγ).

For `O=C(Nc1ccc(-c2nc(N3CCOCC3)nc(N3CCOCC3)n2)cc1)Nc1ccc(C(O)(C(F)(F)F)C(F)(F)F)cc1` [Example 56, 1-[4-(4,6-dimorpholin-4-yl-1,3,5-triazin-2-yl)phenyl]-3-{4-[2,2,2-trifluoro-1-hydroxy-1-(trifluoromethyl)ethyl]phenyl}urea], at Human mTOR (FLAG-TOR), the IC50 was 15 nM and 10 nM.

Consider `CNCCNC(=O)Nc1ccc(-c2nc(OC3CCOCC3)nc(N3CCOCC3)n2)cc1` [Example 64, 1-[2-(methylamino)ethyl]-3-{4-[4-morpholin-4-yl-6-(tetrahydro-2H-pyran-4-yloxy)-1,3,5-triazin-2-yl]phenyl}urea], for which the IC50 at Human mTOR (FLAG-TOR) was found to be 1500 nM; at PI3K-α (read-out: IC50 PI3Kα), 1460 nM; at PI3K-γ (read-out: IC50 PI3Kγ) it was 1190 nM.

With `CN1CCC(NC(=O)Nc2ccc(-c3nc(N4CCOCC4)nc(N4CCOCC4)n3)cc2)CC1` [Example 98, 1-[4-(4,6-dimorpholin-4-yl-1,3,5-triazin-2-yl)phenyl]-3-(1-methylpiperidin-4-yl)urea], the IC50 was found to be 2100 nM on Human mTOR (FLAG-TOR), 1350 nM on PI3K-α (read-out: IC50 PI3Kα) and 9000 nM on PI3K-γ (read-out: IC50 PI3Kγ).

As to `C[C@H]1COCCN1c1nc(-c2ccc(NC(=O)NC3CCN(C)CC3)cc2)nc(N2CCOCC2)n1` [Example 99, 1-(4-{4-[(3S)-3-methylmorpholin-4-yl]-6-morpholin-4-yl-1,3,5-triazin-2-yl}phenyl)-3-(1-methylpiperidin-4-yl)urea], the values for the IC50 at Human mTOR (FLAG-TOR), at PI3K-α (read-out: IC50 PI3Kα) and at PI3K-γ (read-out: IC50 PI3Kγ) were 460 nM, 1520 nM and 7500 nM, respectively.

Regarding `Nc1ccc(-c2nc(N3CCOCC3)nc(N3CCC4(CC3)OCCO4)n2)cc1` [Example 129, 4-[4-(1,4-dioxa-8-azaspiro[4.5]dec-8-yl)-6-morpholin-4-yl-1,3,5-triazin-2-yl]aniline], the IC50 on Human mTOR (FLAG-TOR) is 2350 nM; on PI3K-α (read-out: IC50 PI3Kα) it was 7220 nM; against PI3K-γ, over 10000 nM.

On to `COC(=O)c1ccc(NC(=O)Nc2ccc(-c3nc(C)nc(N4CCOCC4)n3)cc2)cc1` [Example 162, methyl 4-({[4-(4-methyl-6-morpholin-4-yl-1,3,5-triazin-2-yl)phenyl]carbamoyl}amino)benzoate], for which the concentration for half-maximal inhibition (IC50) was 23 nM at Human mTOR (FLAG-TOR), 10 nM at PI3K-α (read-out: IC50 PI3Kα) and 495 nM on PI3K-γ (read-out: IC50 PI3Kγ).

With `CN(C)CCN1CCN(C(=O)c2ccc(NC(=O)Nc3ccc(-c4nc(N5CCOCC5)nc(N5CCOCC5)n4)cc3)cc2)CC1` [Example 168, 1-[4-({4-[2-(dimethylamino)ethyl]piperazin-1-yl}carbonyl)phenyl]-3-[4-(4,6-dimorpholin-4-yl-1,3,5-triazin-2-yl)phenyl]urea], the values for the IC50 on Human mTOR (FLAG-TOR), at PI3K-α (read-out: IC50 PI3Kα) and on PI3K-γ (read-out: IC50 PI3Kγ) were 3.6 nM, 1 nM and 3 nM, respectively.

As to `CCCCc1nc(-c2ccc(NC(=O)Nc3ccc(C(=O)OC)cc3)cc2)nc(N2CCOCC2)n1` [Example 188, methyl 4-({[4-(4-butyl-6-morpholin-4-yl-1,3,5-triazin-2-yl)phenyl]carbamoyl}amino)benzoate], the IC50 stood at 11 nM at Human mTOR (FLAG-TOR), 7540 nM on PI3K-α (read-out: IC50 PI3Kα) and 2380 nM at PI3K-γ (read-out: IC50 PI3Kγ).

On to `CCc1nc(-c2ccc(NC(=O)Nc3ccc(C(=O)OC)cc3)cc2)nc(N2CCOCC2)n1` [Example 225, methyl 4-({[4-(4-ethyl-6-morpholin-4-yl-1,3,5-triazin-2-yl)phenyl]carbamoyl}amino)benzoate], for which the IC50 at Human mTOR (FLAG-TOR) came out at 47 nM; at PI3K-α (read-out: IC50 PI3Kα), 109 nM; at PI3K-γ (read-out: IC50 PI3Kγ), 388 nM.

In the case of `COC(=O)c1ccc(NC(=O)Nc2ccc(-c3nc(C4=CCOCC4)nc(N4CCOCC4)n3)cc2)cc1` [Example 226, methyl 4-[({4-[4-(3,6-dihydro-2H-pyran-4-yl)-6-morpholin-4-yl-1,3,5-triazin-2-yl]phenyl}carbamoyl)amino]benzoate], the IC50 on Human mTOR (FLAG-TOR) was 62 nM; on PI3K-α (read-out: IC50 PI3Kα), 75 nM; on PI3K-γ (read-out: IC50 PI3Kγ), 294 nM.

As for `CNC(=O)Nc1ccc(-c2nc(-c3ccc(NC(=O)Nc4ccc(C(N)=O)cc4)cc3)nc(N3CCOCC3)n2)cc1` [Example 462, 4-({[4-(4-{4-[(methylcarbamoyl)amino]phenyl}-6-morpholin-4-yl-1,3,5-triazin-2-yl)phenyl]carbamoyl}amino) benzamide], the half-maximal inhibitory concentration (IC50) on Human mTOR (FLAG-TOR) is under 1 nM.

Take `CN(C)[C@@H]1CCN(C(=O)c2ccc(NC(=O)Nc3ccc(-c4nc(N5CCOCC5)nc(N5CCOCC5)n4)cc3)cc2)C1` [Example 484, 1-(4-{[(3R)-3-(dimethylamino)pyrrolidin-1-yl]carbonyl}phenyl)-3-[4-(4,6-dimorpholin-4-yl-1,3,5-triazin-2-yl)phenyl]urea]: the IC50 on Human mTOR (FLAG-TOR) is 0.63 nM; at PI3K-α (read-out: IC50 PI3Kα) it was 1 nM.

Consider `CN(C)[C@H]1CCN(C(=O)c2ccc(NC(=O)Nc3ccc(-c4nc(N5CCOCC5)nc(N5CCOCC5)n4)cc3)cc2)C1` [Example 485, 1-(4-{[(3S)-3-(dimethylamino)pyrrolidin-1-yl]carbonyl}phenyl)-3-[4-(4,6-dimorpholin-4-yl-1,3,5-triazin-2-yl)phenyl]urea], for which the IC50 at Human mTOR (FLAG-TOR) is 1.25 nM; on PI3K-α (read-out: IC50 PI3Kα), 1.4 nM.

For `CC(C)N1CCN(C(=O)c2ccc(NC(=O)Nc3ccc(-c4nc(C5CCOCC5)nc(N5CCOCC5)n4)cc3)cc2)CC1` [Example 523, 1-(4-{[4-(1-methylethyl)piperazin-1-yl]carbonyl}phenyl)-3-{4-[4-morpholin-4-yl-6-(tetrahydro-2H-pyran-4-yl)-1,3,5-triazin-2-yl]phenyl}urea], the IC50 at Human mTOR (FLAG-TOR) was determined as 0.43 nM.

Regarding `O=C(Nc1ccncc1)Nc1ccc(-c2nc(NS(=O)(=O)c3ccccc3)nc(N3CCOCC3)n2)cc1` [Example 781, N-(4-morpholin-4-yl-6-{4-[(pyridin-4-ylcarbamoyl)amino]phenyl}-1,3,5-triazin-2-yl)benzenesulfonamide], the results for the IC50 at PI3K-α (read-out: IC50 PI3Kα) and on PI3K-γ (read-out: IC50 PI3Kγ) were 136 nM and 374 nM, respectively.

On to `C[C@H]1COCCN1c1nc(-c2ccc(NC(=O)Nc3ccc(C(=O)N4CCNCC4)cc3)cc2)nc(N2C3CCC2COC3)n1` [Example 838, 1-(4-{4-[(3S)-3-methylmorpholin-4-yl]-6-(3-oxa-8-azabicyclo[3.2.1]oct-8-yl)-1,3,5-triazin-2-yl}phenyl)-3-[4-(piperazin-1-ylcarbonyl)phenyl]urea], for which the IC50 on PI3K-α (read-out: IC50 PI3Kα) is 4 nM; at PI3K-γ (read-out: IC50 PI3Kγ), 69.5 nM.
